From patent EP4588485A1, “PHARMACEUTICAL COMBINATION OF FAK INHIBITOR AND TOPOISOMERASE INHIBITOR AND USE THEREOF” (Inxmed (Nanjing) Co., Ltd., priority 2022, dated 2024)

Assays:
MDA-MB-231 cells [1] = assay: Calreticulin release and exposure by flow cytometry after FAK siRNA silencing plus topoisomerase inhibitor; format: cell-based; conditions: FAK siRNA 50 nM for 24 hours, then 2 µM drug for 48 hours; compared with control siRNA; Fig. 2 / Fig. 4
Method: The siRNA technology was used in the in vitro assay to reduce the expression level of FAK, and combined with Etoposide for 48 hours. Flow cytometry was used to detect the expression of Calreticulin, the main target of ICD.
MDA-MB-231 cells were transfected with control siRNA or FAK siRNA at a final concentration of 50 nM, respectively. After the transfection for 24 hours, the cells were treated with 2 µM of Etoposide for 48 hours. The cells were fluorescent stained with Calreticulin antibody, and the staining results were analyzed by flow cytometry.
The siRNA technology was used in the in vitro assay to reduce the expression level of FAK, and combined with Teniposide for 48 hours. Flow cytometry was used to detect the expression of Calreticulin, the main target of ICD.
MDA-MB-231 cells were transfected with control siRNA or FAK siRNA at a final concentration of 50 nM, respectively. After the transfection for 24 hours, the cells were treated with 2 µM Teniposide for 48 hours. The cells were fluorescent stained with Calreticulin antibody, and the staining results were analyzed by flow cytometry.

CT26 cells [2] = assay: CCK-8 cell proliferation inhibition; format: cell-based; conditions: Mus musculus, single drug, 72 hours, CCK8, OD450
Method: CT26 cells were cultured with RPMI-1640 (Shanghai Basalmedia, catalog number: L210KJ, batch number: F210916) + 10% FBS (Gibco, catalog number: 10099-141c, batch number: 2158737cp), and passaged twice. When the cells were in good condition, they were placed in a 96-well plate, 3000 cells/well. […] 10 drug concentrations were set. The first concentration was 30 µM, which was serially diluted 5-fold, and the last one was the control, with the drug concentration of 0. Each drug concentration was run in triplicate. At the same time, another group of cells was established with the same drug concentration as that in the above method.
10 µl of CCK8 detection reagent (Cellorlab, classification number: CX001M, batch number: 2571100) was added to each well, and the plate was incubated in a 5% CO2 incubator at 37 °C for 2-4 hours. Then the plate was read using microplate reader OD450 (chemiluminescence method). […]
CT26 cells were digested with trypsin, and then the cells were collected and counted. […]
After 72 hours of drug action, 10 µL of CCK-8 detection reagent was added to each well of the cell plate using a multi-channel pipette, and then the cell plate was incubated in a 37 °C, 5% CO2 incubator for another 4 hours. Finally, the absorbance of each well at 450 nm was measured using an ELISA reader. […]

CT26 cells [3] = assay: Microscope observation of cell status after 48 hours of drug action; format: cell-based, mouse; conditions: IN10018 5 µM; for cell status observed under a microscope: Etoposide 20 µM, Fig. 6; for cell status observed under a microscope (cell death / cell viability): Teniposide 4.8 µM
Method: CT26 cells (Institute of Cell Biology, Chinese Academy of Sciences) were cultured with RPMI-1640 (Shanghai Basalmedia, catalog number: L210KJ, batch number: F210916) + 10% FBS (Gibco, catalog number: 10099-141c, batch number: 2158737cp), and passaged twice. When the cells were in good condition, they were placed in a 24-well plate. After 24 hours of cell spreading, four groups were set up. The first group was the control group, in which culture medium was added; the second group was IN10018 at a concentration of 5µM; the third group was Etoposide (source: MCE, classification number: 33419-42-0, batch number: 113741) with a concentration of 20 µM; and the fourth group was a combination group of IN10018 (5 µM) and Etoposide (20 µM). The drugs were mixed and cultured in a 5 % CO2 incubator at 37°C for 48 hours.
After 48 hours of drug action, the cells were observed and photographed under a microscope. The photos were saved. Then the cells were collected for flow cytometry, and the cells were washed twice with flow buffer (PBS + 2% FBS). 0.5 µl of AF647 anti-Calreticulin antibody (abcam, catalog number: ab196159, batch number: CR33676773) was added to each well, and fully mixed. The cells were incubated at 4 °C for 20 minutes in the dark. After 20 minutes, the cells were washed twice with flow buffer (PBS + 2% FBS). Cell apoptosis detection kit (Beyotime, catalog number: CL062L, batch number: 021921210811) was used. 195 µl of Annexin-V-FITC binding solution was added, and the cells were gently mixed. 5 µl of annexin-V-FITC antibody was added, and the mixture was gently mixed. 10 µl of PI dye was added and gently mixed. The mixture was incubated at room temperature in the dark for 15 minutes, and then analyzed on a flow cytometer.
After 48 hours of drug action, the cells were photographed using a microscope, then trypsinized and collected for flow cytometry staining.

[4] = test system: MC38 mouse colorectal cancer cells; assay: In vivo antitumor efficacy in subcutaneous allograft tumor model; parameters: species or system C57BL/6 mice
Method: Table 12: Animal groups and dosing regimens for in vivo efficacy assays
(§1) • 1. N: number of mice in each group; • 2. Dosing volume: 10 mL/kg based on the mouse body weight. If the body weight dropped by more than 15%, the administration of the animals would be stopped; When the body weight recovered to 90%, the administration would be resumed. • 3. The Etoposide dose was increased to 6 mg/kg on the 6th day after grouping and dosing;
Colorectal cancer cells MC38 (from Nanjing Cobioer Biotechnology Co., Ltd., article number: CBP60825) were maintained and passaged by InxMed (Nanjing) Co., Ltd. Cells were cultured in monolayer in vitro under the following conditions: DMEM medium with 10% fetal bovine serum, in a 37°C, 5% CO2 incubator. Cells were routinely digested and passaged two to three times a week using trypsin-EDTA. When the cells were in the exponential growth phase and the adherent confluence reached 80%-90%, the cells were harvested, counted, and then inoculated.
0.1 mL of cell suspension containing 2×10^5 cells was subcutaneously inoculated on the right back of each mouse. When the tumor volume reached about 50 mm^3 (9th day after cell inoculation), the mice were randomly divided into groups and administered according to the tumor volume. Table 13: Test substance and control solvent preparation
The assay index was to examine whether the tumor growth was inhibited, delayed, or cured. Tumor diameters were measured three times a week using calipers. The tumor volume was calculated using the formula: V = 0.5 × a × b^2, where a and b represent the long and short diameters of the tumor, respectively.
The anti-tumor efficacy of the compound was evaluated by TGI (%), which reflected the tumor growth inhibition rate. Based on the tumor volume on the first day after grouping, the tumor growth inhibition rate TGI (%) was calculated according to the following formula: TGI (%) = [1 - (average tumor volume of an administration group - average tumor volume of the administration group at the beginning of treatment) / (average tumor volume of the solvent control group - average tumor volume of the solvent control group at the beginning of treatment)] × 100%.
Statistical analysis was based on tumor volume at the end of the assay using Prism Graphpad software. Comparisons between multiple groups were analyzed using Two-way ANOVA and Fisher's LSD test. A P-value of less than 0.05 was considered statistically significant.
After cell inoculation, tumor growth was observed every day. On the 9th day after inoculation, mice were grouped based on tumor volume. The average tumor volume at enrollment was approximately 50 mm^3.

MDA-MB-231 cells [5] = assay: Apoptosis by Annexin V flow cytometry after FAK siRNA silencing plus topoisomerase inhibitor; format: cell-based; conditions: FAK siRNA 50 nM for 24 hours, then 2 µM drug for 48 hours; FAK silencing group compared with control siRNA group; Fig. 1 / Fig. 3
Method: The siRNA technology was used in the in vitro assay to reduce the expression level of FAK, and combined with Etoposide for 48 hours; flow cytometry was used to detect apoptosis in control and FAK silenced cells.
Assay antibodies: recombinant Alexa Fluor® 647 fluorescent Anti-Calreticulin antibody (Abcam, ab196159), Annexin V apoptosis detection kit (Invitrogen, A35110).
MDA-MB-231 cells were transfected with control siRNA or FAK siRNA at a final concentration of 50 nM, respectively. After the transfection for 24 hours, the cells were treated with 2 µM of Etoposide for 48 hours. The cells were stained using Annexin V kit and detected by flow cytometry. The early and late apoptotic values were counted, compared with those of the DMSO control group, and plotted using Graphpad 8.0.
The siRNA technology was used in the in vitro assays to reduce the expression level of FAK, and combined with Teniposide for 48 hours; flow cytometry was used to detect apoptosis in control and FAK silenced cells. […]
MDA-MB-231 cells were transfected with control siRNA or FAK siRNA at a final concentration of 50 nM, respectively. […] The cells were stained using Annexin V kit and detected by flow cytometry. The early and late apoptosis values were counted, compared with those of the DMSO control group, and plotted using Graphpad 8.0.

[6] = day 17 after group administration, 6 mice per group; deaths due to tumor rupture
Method: as §1
The formulation and any modifications of this assay protocol had been assessed and approved by the IACUC of ArrayBridge. The use and welfare of assay animals were carried out in accordance with AAALAC regulations. The health status and mortality of animals were monitored daily, with routine checks including observation of tumor growth and the impact of drug treatment on the animals' daily behavior, such as activity, food and water intake (estimated by visual inspection), changes in body weight, physical signs, or any other abnormalities. The number of animal deaths and side effects in each group were recorded based on the number of animals in each group.
The assay was carried out according to the dosing regimen. During the assay, the animals' activities such as eating and drinking were observed every day, and the body weight of the animals was recorded three times a week. […]

SMILES	release and exposure of Calreticulin (MDA-MB-231 cells [1])	IC50 (CT26 cells [2]) [µM]	cell status observed under a microscope (CT26 cells [3])	cell status observed under a microscope (cell death / cell viability) (CT26 cells [3])	Tumor volume on day 17 ([4]; 17th day after group administration, Etoposide 3 mg/kg PO QD (6 mg/kg from the 6th day), IN10018 25 mg/kg PO QD, PD-L1 antibody 5 mg/kg i.p. BIW, mean ± SD) [mm^3]	Tumor volume on day 0 ([4]; baseline on the day of grouping, mean ± SD, 6 mice per group) [mm^3]	TGI ([4]; day 17 vs. control group, Etoposide 3 mg/kg PO QD (6 mg/kg from the 6th day), IN10018 25 mg/kg PO QD, PD-L1 antibody 5 mg/kg i.p. BIW) [%]	inhibitory effect on tumor growth ([4]; in words, compared with the blank control group, whole dosing cycle, Fig. 11)	apoptosis (early and late apoptotic values) (MDA-MB-231 cells [5])	Animal Survival [6]
COc1cc([C@@H]2c3cc4c(cc3[C@@H](O[C@@H]3O[C@@H]5CO[C@@H](C)O[C@H]5[C@H](O)[C@H]3O)[C@H]3COC(=O)[C@H]23)OCO4)cc(OC)c1O [Etoposide]	significantly enhanced	24.4	poor	obvious	2420.2±1377.3	48.2 ± 10.2	9.5	no inhibitory effect	significantly enhanced	5/6
COc1cc(C(=O)NC2CCN(C)CC2)c(F)cc1Nc1ncc(C(F)(F)F)c(Oc2cccc3c2C(=O)N(C)C3)n1 [IN10018]			good	better						
COc1cc([C@@H]2c3cc4c(cc3[C@@H](O[C@@H]3O[C@@H]5CO[C@@H](c6cccs6)O[C@H]5[C@H](O)[C@H]3O)[C@H]3COC(=O)[C@H]23)OCO4)cc(OC)c1O [Teniposide]	significantly enhanced	0.818							significantly enhanced	
